These results are taken from patent publication US20090311246A1, “Method of Enhancing Remyelination in Demyelinating Diseases of the Central Nervous System” (priority 2008, published 2009).

In series [1] the test system is sera from SFV-infected B6 mice. It counts as binding. The procedure: To measure the antibody response of both WT and γδ KO mice against SFV and two of the peptides of the SFV envelope protein, E2, an indirect ELISA was performed. Sera were pooled from 4-6 SFV-infected WT, and 3 KO, mice on days 0, 7, 14, 21 and 35 pi. Briefly, Immunolon 2HB 96 well microtiter plates (VWR, Bridge Port, N.J.) were coated with 1 μg/well of each antigen in 100 μl/well carbonate buffer overnight at room temperature. After washing, the plates were blocked and serum samples were added. […] After washing, biotinylated goat anti-mouse Igs (BD Pharmingen, Torreyana, Calif.), Strepavidin conjugated to Horse Radish Peroxidase (Vector Laboratories, Burlingame, Calif.), and OPD substrate (Sigma, St. Louis, Mo.) were used, as previously described (4, 9). […] Values were considered to be positive when they were >0.3 OD units and exceeded the mean value plus three standard deviations for antibody response on day 0 pi of mice of the same strain. […]
In some instances day 0 OD values were high, thus making the differences appear small. Therefore, to account for such discrepancy, we also determined the ratio of the highest day (day 15 or 21) over day 0.

The subject of series [2] is sera from SFV-infected WT and γδ KO mice. Kind of series: ELISA of sera from SFV-infected WT and γδ KO mice against SFV, E2 peptides, PPD and rMOG. It counts as binding.
A further series relates to B6 mice. Particulars: ref. (4); cited from earlier work.

“H-IQDTRNAVRACRIQYHHD-OH [E2 115-129, reference compound]”: in series [1] (OD of highest day (day 15 or 21) over day 0, SFV-infected sera), the “Dh / D0 (Ratio)” value was found to be 5.28. Moreover, the “Dh−D0 (difference)” value in series [1] (OD of highest day minus day 0, SFV-infected sera) is listed as 0.458. The “Net change in the levels of antibody (ΔOD), D7-9” value in series [1] (SFV-infected mice sera, days 7-9 pi, day 0 OD subtracted) was 0.82 ± 0.40 ΔOD. The “Net change in the levels of antibody (ΔOD), D14-16” value in series [1] (SFV-infected mice sera, days 14-16 pi, day 0 OD subtracted) was 0.91 ± 0.14 ΔOD. The “Net change in the levels of antibody (ΔOD), D21-23” value in series [1] (SFV-infected mice sera, days 21-23 pi, day 0 OD subtracted) is reported as 0.95 ± 0.22 ΔOD. The “Net change in the levels of antibody (ΔOD), D31-35” value in series [1] (SFV-infected mice sera, days 31-35 pi, day 0 OD subtracted) was 0.85 ± 0.07 ΔOD. The “Reactivity of sera from SFV-infected B6 mice with the antigen in ELISA” value in series [1] (vs day 0) is recorded as “reacted”. In series [2] (WT mice, day 0), the “Net change in the level of antibody, D0 WT” value came to 0 nano gr. The “Net change in the level of antibody, D7 WT” value in series [2] (WT mice, day 7 pi, ± SD) stood at 69 ± 29 nano gr. Besides, in series [2] (WT mice, day 14 pi, ± SD), the “Net change in the level of antibody, D14 WT” value was 83 ± 16 nano gr. The “Net change in the level of antibody, D21 WT” value in series [2] (WT mice, day 21 pi, ± SD) is given as 90 ± 20 nano gr. In series [2] (WT mice, day 35 pi, ± SD), the “Net change in the level of antibody, D35 WT” value worked out at 73 ± 14 nano gr. Besides, in series [2] (γδ KO mice, day 0), the “Net change in the level of antibody, D0 KO” value was 0 nano gr. In addition, the “Net change in the level of antibody, D7 KO” value in series [2] (γδ KO mice, day 7 pi, ± SD) came to 65 ± 35 nano gr. In series [2] (γδ KO mice, day 14 pi, ± SD), the “Net change in the level of antibody, D14 KO” value was 34 ± 24 nano gr. The “Net change in the level of antibody, D21 KO” value in series [2] (γδ KO mice, day 21 pi, ± SD) came to 55 ± 20 nano gr. In series [2] (γδ KO mice, day 35 pi, ± SD), the “Net change in the level of antibody, D35 KO” value worked out at 29 ± 22 nano gr. For the same substance, in series [2] (γδ KO, sera 1:80), the “Reactivity of sera from SFV-infected γδ KO mice” value is listed as “lower, but not significantly different than WT”. Besides, the “Histopathology after inoculation with the peptide (literature)” value in the series on B6 mice is “induced vaccuolation in myelin”.
